# Test results as given in patent publication US10239856B2, “Synthesis of resorcylic acid lactones useful as therapeutic agents” (UNIVERSITY DE STRASBOURG, priority 2008, dated 2019).
# pIC50: −log10 of the molar value. Where two headings read alike, the source gives them in different places.
# Columns and labels:
# HSP90α = HSP90α (Homo sapiens, UniProt P07900); assay: Affinity to HSP90α; format: binding
# Her-2 (HSP90 client) = Her-2 (HSP90 client) degradation (client depletion); format: cell-based
# Procedure: A number of the compounds of the invention were tested for affinity to HSP90α (see Kim et al., J. Biomol. Screen., 2004, 9, 375), Her-2 (HSP90 client) degradation (see Xu et al., J. Biol. Chem., 2001, 276, 3702), and cytotoxicity against SKBr3 and HCC1954, two breast cancer cell lines which over express Her-2.
# SKBr3 = assay: Cytotoxicity against SKBr3 breast cancer cells; format: cell-based; conditions: Homo sapiens, SK-BR-3, first value of cell
# Procedure: (§1) Compounds of the invention were assayed for cytotoxicity in HCC1954 and SK-BR-3 tumor cells.
# HCC1954 = assay: Cytotoxicity against HCC1954 breast cancer cells; format: cell-based; conditions: Homo sapiens, second value of cell
# Procedure: as §1
# ErbB2 in SK-BR3 = assay: Degradation of HSP90 client ErbB2 in SK-BR3, Western blotting after 18 hrs treatment; format: cell-based; conditions: SK-BR3, 18 hrs treatment, E-oxime isomer
# [1] = test system: BT-474 (breast tumor cell line) xenograft; assay: BT-474 breast tumor xenograft in CB17/SCID mice; format: in vivo; parameters: Regression in tumor volume / Inhibition of tumor growth: dose or concentration left out as unconfirmed
# Procedure: FIG. 1 depicts the tumor volume and animal weight change following treatment with compound 13a or control vehicle. Each point represents the mean of measurements from 5 (for vehicle) or 6 (for 13a) animals. The experiment was carried out for 28 days and tumor volumes were determined weekly by caliper measurement. Student's t-test was used to determine the statistical analysis of the difference between tumor volumes of vehicle-treated and drug-treated animals. Individual body weights were also determined weekly. Statistical significance was achieved (comparing tumor volumes in vehicle-treated and drug-treated animals) at day 21 for the q4d schedule (p=0.0497). In comparison, on the q2d schedule increasing statistical significance was achieved on days 14, 21, and 28, when comparing tumor volume of vehicle-treated and drug-treated animals (p=0.012, p=0.007, and p=0.0002, respectively).
# Top panels represent hematoxylin & eosin (H & E) stained paraffin sections. Nuclei appear blue in color. The dark blue condensed nuclei in drug-treated tumors (right) are consistent with apoptotic cells. […] Bottom panels represent TUNEL (terminal deoxynucleotidyl transferase-mediated dUTP-biotin nick end labeling)-stained paraffin sections. The high preponderance of reddish-pink nuclei (positive for TUNEL staining) in the drug-treated tumors reflects DNA fragmentation which is characteristic of apoptosis. Blue arrowheads point to characteristic TUNEL positive nuclei.
# Two schedules of 100 mg every other day (q2d) or every four days (q4d) during 28 days were investigated.
# Based on the in vitro data shown in Table 3, compound 13a was further evaluated in vivo.
# HSP90 = conditions: cited from earlier work
# [2] = read-out: Client Depletion; Her-2 degradation
# [3] = Her-2 degradation; read-out: Client Depletion
Compound,pIC50 (HSP90α; HSP90 affinity),pIC50 (Her-2 (HSP90 client); [2]),pIC50 (HSP90α; read-out: HSP90 affinity),pIC50 (Her-2 (HSP90 client); [3]),pIC50 (SKBr3),pIC50 (HCC1954),Reduction of ErbB2 concentration compared with radicicol and 17-AAG (ErbB2 in SK-BR3),"Weight loss ([1]; q2d and q4d schedules, 28 days)",Inhibition of tumor growth ([1]; q2d or q4d during 28 days),"Regression in tumor volume ([1]; q2d schedule, 28 days) [%]","Tumor histology: cellularity ([1]; q2d schedule, 28 days)","Tumor nuclear TUNEL staining (apoptosis) ([1]; q2d schedule, 28 days)",Inhibitor of HSP90 (HSP90) [nM]
O=C1OCC/C=C/CC/C=C/C(=N/OCC(=O)N2CCCCC2)Cc2cc(O)cc(O)c21 [13b],7.82,7.30,–,–,6.92,6.66,significantly more effective than both radicicol and 17-AAG,–,–,–,–,–,–
O=C1OCC/C=C/CC/C=C/C(=N/OCC(=O)N2CCCCC2)Cc2c(Cl)c(O)cc(O)c21 [13a],–,–,7.68,7.46,6.90,6.49,significantly more effective than both radicicol and 17-AAG,Neither the q2d nor the q4d schedules resulted in significant weight loss,dose-dependent inhibition of the tumor growth,18,dramatic loss of cellularity,high degree of nuclear TUNEL staining,–
C[C@@H]1CC2O[C@@H]2CC/C=C/C(=O)Cc2c(Cl)c(O)cc(O)c2C(=O)O1 (some centres unmarked) [pochonin A],–,–,–,–,–,–,–,–,–,–,–,–,90
C[C@@H]1C/C=C/CC/C=C/C(=N/OCC(=O)N2CCCCC2)Cc2cc(O)cc(O)c2C(=O)O1 [13c],7.74,7.59,–,–,6.35,6.20,significantly more effective than both radicicol and 17-AAG,–,–,–,–,–,–

# The next lines start with results.
pIC50 (HSP90α; HSP90 affinity),pIC50 (Her-2 (HSP90 client); [2]),pIC50 (HSP90α; read-out: HSP90 affinity),pIC50 (Her-2 (HSP90 client); [3]),Compound,pIC50 (SKBr3),pIC50 (HCC1954),Reduction of ErbB2 concentration compared with radicicol and 17-AAG (ErbB2 in SK-BR3),"Weight loss ([1]; q2d and q4d schedules, 28 days)",Inhibition of tumor growth ([1]; q2d or q4d during 28 days),"Regression in tumor volume ([1]; q2d schedule, 28 days) [%]","Tumor histology: cellularity ([1]; q2d schedule, 28 days)","Tumor nuclear TUNEL staining (apoptosis) ([1]; q2d schedule, 28 days)",Inhibitor of HSP90 (HSP90) [nM]
–,–,< 5.00,< 5.00,O=C1OCC/C=C/CC/C=C/C(=NOCC(=O)N2CCNCC2)Cc2c(Cl)c(O)cc(O)c21 [13e],< 5.00,< 5.00,–,–,–,–,–,–,–
–,–,6.96,5.26,O=C(CON=C1/C=C/CC/C=C/CCOC(=O)c2c(O)cc(O)c(Cl)c2C1)NCc1ccccc1 [13j],5.46,5.07,–,–,–,–,–,–,–
